Results reported in patent US10774052B2, “Heteroaryl compounds and uses thereof” (Celgene CAR LLC, priority 2013, dated 2020).

system: pFGFR4 in MDA-MB-453 cells; experiment: FGFR4 signaling, pFGFR4 (MDA); Western blot (Method A), MSD (Method B), ELISA (Method C); type: cell-based; conditions: Homo sapiens, MDA-MB-453, MDA-MB-453 cells; Method B (MSD) for signaling EC50 determination
Experimental: The MDA-MB-453 protein concentrations were determined by a BCA Assay (Pierce, Rockford, Ill.). A sample of 50-100 μg of each lysate was separated by a 4-12% gradient (SDS-PAGE (Invitrogen)), transferred to a nitrocellulose membrane (Biorad, Hercules, Calif.), and probed with specific antibodies. Phospho-protein signals were quantitated using Odyssey Infrared Imaging (Li-Cor Biosciences).
To assess phospho-FGFR signaling, the blots were probed with anti-Phospho-FGFR (Y653/Y654) and total anti-FGFR antibodies. The phospho-FGFR signal was normalized to total FGFR expression for each sample.

| SMILES | EC50 [nM] |
| --- | --- |
| C=CC(=O)NC1CCCCC1Nc1ncc2c(n1)N(C)C(=O)N(c1cc(OC)cc(OC)c1)C2 (racemic) [Compound I-18] | > 1000 |
| C=CC(=O)NC1CCCCC1Nc1ncc2c(n1)N(C1CCCN(C(=O)OC(C)(C)C)C1)C(=O)N(c1cc(OC)cc(OC)c1)C2 (racemic) [Compound I-45] | > 1000 |
| C=CC(=O)NC1CCCCC1Nc1ncc2c(n1)N(C1CCCNC1)C(=O)N(c1cc(OC)cc(OC)c1)C2 (racemic) [Compound I-46] | > 1000 |
| C=CC(=O)Nc1ccccc1Nc1ncc2c(n1)N(Cc1cccc(F)c1)C(=O)N(c1c(Cl)c(OC)cc(OC)c1Cl)C2 [Compound I-12] | < 100 |
| C=CC(=O)Nc1ccccc1Nc1ncc2c(n1)N(C)C(=O)N(c1ccccc1)C2 [Compound I-38] | > 1000 |
| C=CC(=O)Nc1ccccc1Oc1ncc2c(n1)N(C)C(=O)N(c1c(Cl)c(OC)cc(OC)c1Cl)C2 [Compound I-65] | 101 to 500 |
| C=CC(=O)Nc1cc(-c2nccs2)ccc1Nc1ncc2c(n1)N(C)C(=O)N(c1cc(OC)cc(OC)c1)C2 [Compound I-84] | 101 to 500 |
| C=CC(=O)Nc1ccccc1Nc1ncc2c(n1)N(Cc1nccs1)C(=O)N(c1c(Cl)c(OC)cc(OC)c1Cl)C2 [Compound I-91] | < 100 |

same assay, conditions: Homo sapiens; MDA-MB-453 cells; Method A (Western blot) for signaling EC50 determination

| EC50 [nM] | SMILES |
| --- | --- |
| < 100 | C=CC(=O)Nc1ccccc1Nc1ncc2c(n1)N(C)C(=O)N(c1c(Cl)c(OC)cc(OC)c1Cl)C2 [Compound I-2] |

same assay, conditions: Homo sapiens; MDA-MB-453 cells; Method B (MSD) for signaling EC50 determination

| EC50 [nM] | SMILES |
| --- | --- |
| 101 to 500 | C=CC(=O)NC1CCCCC1Nc1ncc2c(n1)N(Cc1cccnc1)C(=O)N(c1c(Cl)c(OC)cc(OC)c1Cl)C2 (racemic) [Compound I-35] |
| 101 to 500 | C=CC(=O)NC1CCCCC1Nc1ncc2c(n1)N(C1CCC1)C(=O)N(c1c(Cl)c(OC)cc(OC)c1Cl)C2 (racemic) [Compound I-70] |
| 101 to 500 | C=CC(=O)NC1CCCCC1Nc1ncc2c(n1)N(Cc1cccc(NS(C)(=O)=O)c1)C(=O)N(c1c(Cl)c(OC)cc(OC)c1Cl)C2 (racemic) [Compound I-89] |
| 101 to 500 | C=CC(=O)NC1CCCC1Nc1ncc2c(n1)N(C)C(=O)N(c1c(Cl)c(OC)cc(OC)c1Cl)C2 (racemic) [Compound I-112] |
| 101 to 500 | C=CC(=O)NC1CCCCC1Nc1ncc2c(n1)N(CC1CC1)C(=O)N(c1c(Cl)c(OC)cc(OC)c1Cl)C2 (racemic) [Compound I-129] |
| < 100 | C=CC(=O)Nc1cc(N2CCN(CCOC)CC2)ccc1Nc1ncc2c(n1)N(C)C(=O)N(c1cc(OC)cc(OC)c1)C2 [Compound I-20] |
| < 100 | C=CC(=O)Nc1ccccc1Nc1ncc2c(n1)N(C1CC1)C(=O)N(c1c(Cl)c(OC)cc(OC)c1Cl)C2 [Compound I-23] |
| 101 to 500 | C=CC(=O)Nc1cc(N2CCCCC2)ccc1Nc1ncc2c(n1)N(C)C(=O)N(c1cc(OC)cc(OC)c1)C2 [Compound I-31] |
| < 100 | C=CCN1C(=O)N(c2cc(OC)cc(OC)c2)Cc2cnc(Nc3ccccc3NC(=O)C=C)nc21 [Compound I-32] |
| 501 to 999 | C=CC(=O)Nc1ccc(C)cc1Nc1ncc2c(n1)N(C)C(=O)N(c1cc(OC)cc(OC)c1)C2 [Compound I-49] |
| > 1000 | C=CC(=O)Nc1ccccc1Nc1ncc2c(n1)N(C)C(=O)N(C1CCCCC1)C2 [Compound I-52] |
| 101 to 500 | C=CC(=O)Nc1cc(C2CCN(CC)CC2)ccc1Nc1ncc2c(n1)N(C)C(=O)N(c1cc(OC)cc(OC)c1)C2 [Compound I-54] |
| 101 to 500 | C=CC(=O)Nc1ccccc1Nc1ncc2c(n1)N(CC1CCN(C(=O)OC(C)(C)C)CC1)C(=O)N(c1cc(OC)cc(OC)c1)C2 [Compound I-60] |
| < 100 | C=CC(=O)N[C@H]1CCCC[C@H]1Nc1ncc2c(n1)N(Cc1ccccc1)C(=O)N(c1c(Cl)c(OC)cc(OC)c1Cl)C2 [Compound I-82] |
| < 100 | C=CC(=O)Nc1ccccc1Nc1ncc2c(n1)N(Cc1cscn1)C(=O)N(c1c(Cl)c(OC)cc(OC)c1Cl)C2 [Compound I-86] |

Further lines, the compound ahead of its results:

| SMILES | EC50 [nM] |
| --- | --- |
| C=CC(=O)NC1CCCCC1Nc1ncc2c(n1)NC(=O)N(c1c(Cl)c(OC)cc(OC)c1Cl)C2 (racemic) [Compound I-73] | 101 to 500 |
| C=CC(=O)Nc1cc(Cl)c(Cl)cc1Nc1ncc2c(n1)N(Cc1ccccc1)C(=O)N(c1c(Cl)c(OC)cc(OC)c1Cl)C2 [Compound I-11] | > 1000 |
| C=CC(=O)Nc1cc(OCCOC)ccc1Nc1ncc2c(n1)N(Cc1ccccc1)C(=O)N(c1cc(OC)cc(OC)c1)C2 [Compound I-14] | 101 to 500 |
| C=CC(=O)Nc1cc(N2CCN(CC)CC2)ccc1Nc1ncc2c(n1)N(C)C(=O)N(c1cc(OC)cc(OC)c1)C2 [Compound I-15] | < 100 |
| C=CC(=O)Nc1cc(N2CCOCC2)ccc1Nc1ncc2c(n1)N(C)C(=O)N(c1cc(OC)cc(OC)c1)C2 [Compound I-17] | < 100 |
| C=CC(=O)Nc1ccccc1Nc1ncc2c(n1)N(Cc1ccc(Cl)c(OC)c1)C(=O)N(c1c(Cl)c(OC)cc(OC)c1Cl)C2 [Compound I-24] | < 100 |
| C=CC(=O)Nc1ccccc1Nc1ncc2c(n1)N(Cc1cccc(OC)c1)C(=O)N(c1c(Cl)c(OC)cc(OC)c1Cl)C2 [Compound I-28] | < 100 |
| C=CC(=O)Nc1ccc(N2CCN(CC)CC2)cc1Nc1ncc2c(n1)N(C)C(=O)N(c1cc(OC)cc(OC)c1)C2 [Compound I-30] | 101 to 500 |
| C=CC(=O)Nc1ccccc1Nc1ncc2c(n1)N(C1CC1)C(=O)N(c1cc(OC)cc(OC)c1)C2 [Compound I-34] | < 100 |
| C=CC(=O)Nc1ccccc1Nc1ncc2c(n1)N(CC1CCNCC1)C(=O)N(c1cc(OC)cc(OC)c1)C2 [Compound I-40] | > 1000 |
| C=CC(=O)Nc1cc(C2=CCN(CC)CC2)ccc1Nc1ncc2c(n1)N(C)C(=O)N(c1cc(OC)cc(OC)c1)C2 [Compound I-56] | < 100 |
| C=CCCN1C(=O)N(c2cc(OC)cc(OC)c2)Cc2cnc(Nc3ccccc3NC(=O)C=C)nc21 [Compound I-57] | < 100 |
| C=CC(=O)Nc1ccccc1Nc1ncc2c(n1)N(CCC(O)CO)C(=O)N(c1cc(OC)cc(OC)c1)C2 (centres unmarked) [Compound I-58] | 101 to 500 |
| C=CC(=O)Nc1cc(N2CCN(C(=O)OC(C)(C)C)CC2)ccc1Nc1ncc2c(n1)N(C)C(=O)N(c1c(Cl)c(OC)cc(OC)c1Cl)C2 [Compound I-62] | < 100 |
| C=CC(=O)N[C@@H]1CCCC[C@@H]1Nc1ncc2c(n1)N(Cc1ccccc1)C(=O)N(c1c(Cl)c(OC)cc(OC)c1Cl)C2 [Compound I-66] | > 1000 |
| C=CS(=O)(=O)Nc1ccccc1Nc1ncc2c(n1)N(C)C(=O)N(c1cc(OC)cc(OC)c1)C2 [Compound I-67] | < 100 |
| C=CC(=O)Nc1ccc(-c2cnn(C)c2)cc1Nc1ncc2c(n1)N(C)C(=O)N(c1c(Cl)c(OC)cc(OC)c1Cl)C2 [Compound I-74] | < 100 |
| C=CC(=O)Nc1ccccc1Nc1ncc2c(n1)N(C)C(=O)N(c1cc(OC)cc(OC)c1Cl)C2 [Compound I-75] | < 100 |
| C=CC(=O)Nc1cc(-c2cnn(C)c2)ccc1Nc1ncc2c(n1)N(C)C(=O)N(c1cc(OC)cc(OC)c1)C2 [Compound I-77] | < 100 |
| C=CC(=O)Nc1ccc(-c2nccs2)cc1Nc1ncc2c(n1)N(C)C(=O)N(c1cc(OC)cc(OC)c1)C2 [Compound I-78] | 101 to 500 |
| C=CC(=O)Nc1ccccc1Nc1ncc2c(n1)N(Cc1cccc(C#N)c1)C(=O)N(c1cc(OC)cc(OC)c1)C2 [Compound I-90] | 101 to 500 |

same assay, conditions: Homo sapiens; MDA-MB-453 cells; Method C (ELISA) for signaling EC50 determination

| EC50 [nM] | SMILES |
| --- | --- |
| < 100 | C=CC(=O)Nc1ccccc1Nc1ncc2c(n1)N(Cc1ccccc1)C(=O)N(c1c(Cl)c(OC)cc(OC)c1Cl)C2 [Compound I-3] |

same assay, conditions: MDA-MB-453 cells; Method B (MSD) for signaling EC50 determination

| SMILES | EC50 [nM] |
| --- | --- |
| C=CC(=O)Nc1cc(C(F)(F)F)ccc1Nc1ncc2c(n1)N(Cc1ccccc1)C(=O)N(c1c(Cl)c(OC)cc(OC)c1Cl)C2 [Compound I-10] | > 1000 |
